Measurements: PubChem BioAssay (NCI)
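Protocol summary: plate cells (96-well), add compound at 5 concentrations, incubate 48 h, interpolate endpoints linearly. TGI marks complete inhibition of growth.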 Where a SMILES comes first, the peptide text is derived from it. [ ]: non-standard residue; d: D form. pGlu = O=C1CC[CH](C(=O)O)N1; Thz = O=C(O)[CH]1CSCN1

Legend:
Experiment in all cases: inhibition of tumour cell growth, NCI panel, 48 h
[1] = tested on: 786-0 renal
[2] = tested on: A498 renal
[3] = tested on: A549 NSCLC
[4] = tested on: ACHN renal
[5] = tested on: BT-549 breast
[6] = tested on: CAKI-1 renal
[7] = tested on: CCRF-CEM leukemia
[8] = tested on: COLO 205 colon
[9] = tested on: DU-145 prostate
[10] = tested on: EKVX NSCLC
[11] = tested on: HCC-2998 colon
[12] = tested on: HCT-116 colon
[13] = tested on: HCT-15 colon
[14] = tested on: HL-60(TB) leukemia
[15] = tested on: HOP-62 NSCLC
[16] = tested on: HOP-92 NSCLC
[17] = tested on: HS 578T breast
[18] = tested on: HT29 colon
[19] = tested on: IGROV1 ovarian
[20] = tested on: K-562 leukemia
[21] = tested on: KM12 colon
[22] = tested on: LOX IMVI melanoma
[23] = tested on: M14 melanoma
[24] = tested on: MALME-3M melanoma
[25] = tested on: MCF7 breast
[26] = tested on: MDA-MB-231 breast
[27] = tested on: MDA-MB-435
[28] = tested on: MDA-N
[29] = tested on: MOLT-4 leukemia
[30] = tested on: NCI-H226 lung
[31] = tested on: NCI-H23 lung
[32] = tested on: NCI-H460 lung
[33] = tested on: NCI-H522 lung
[34] = tested on: NCI/ADR-RES ovarian
[35] = tested on: OVCAR-4 ovarian
[36] = tested on: OVCAR-5 ovarian
[37] = tested on: OVCAR-8 ovarian
[38] = tested on: PC-3 prostate
[39] = tested on: RPMI-8226 leukemia
[40] = tested on: RXF 393 renal
[41] = tested on: SF-268 CNS
[42] = tested on: SF-295 CNS
[43] = tested on: SK-MEL-2 melanoma
[44] = tested on: SK-MEL-28 melanoma
[45] = tested on: SK-MEL-5 melanoma
[46] = tested on: SK-OV-3 ovarian
[47] = tested on: SN12C renal
[48] = tested on: SNB-19 CNS
[49] = tested on: SNB-75 CNS
[50] = tested on: SR leukemia
[51] = tested on: SW-620 colon
[52] = tested on: T-47D breast
[53] = tested on: TK-10 renal
[54] = tested on: U251 CNS
[55] = tested on: UACC-257 melanoma
[56] = tested on: UACC-62 melanoma
[57] = tested on: UO-31 renal
[58] = tested on: OVCAR-3 ovarian
[59] = tested on: SF-539 CNS

Measured: TGI

CCOC(=O)c1c(O)cn2c1[nH]c1cccc3cccc2c31
not listed: [58] | [59]
> 100 µM: all other assays above

O=C1CCC(C(=O)N2CSCC2C(=O)O)N1 (stereo not given) ([pGlu]-[Thz]-OH; configuration not given here)
not listed: [8] | [10] | [12] | [16] | [35] | [54]
> 100 µM: all other assays above
